# Where two headings read alike, the source gives them in different places.
# Legend:
# [1] = Nitrosamine formation under nitrosating conditions in solution (UPLC-MS); type: physicochemical; conditions: for 10 min. N—NO Level: area % by UV; for 2 h N—NO Level / 42 h N—NO Level: area % by UV (210 nm)
# Procedure: A study was conducted to determine whether varenicline prodrug (Compound 1) forms nitrosamine under nitrosating conditions in solution as compared to varenicline. Regular UPLC-MS detection was utilized. Varenicline free base (0.1 mmol), varenicline tartrate salt (0.1 mmol), and Compound 1 (0.1 mmol) were added to separate vials. THF (2.2 ml) was added to each vial. NaNO2 (0.1 eq) and AcOH (0.1 eq) (added as a 0.1 wt % NaNO2 solution with equivalent molar of acetic acid was also added to each vial to provide a total volume of ~2.5 ml/vial.
# [2] = system: chronic cigarette smokers; conditions: Study 5, cited from earlier work
# [3] = system: chronic cigarette smokers; conditions: Study 2, cited from earlier work; for co-confirmed continuous abstinence during weeks 9 through 12: placebo 12%; for continuously abstinent from one week after TQD through the end of treatment: placebo 8%
# [4] = system: chronic cigarette smokers; conditions: Study 4, cited from earlier work
# [5] = system: chronic cigarette smokers; conditions: total dose of 1 mg per day or 2 mg per day; six weeks; initial evidence; cited from earlier work
# [6] = system: chronic cigarette smokers; conditions: Study 3, patient-directed 0.5 mg QD to 1 mg BID, cited from earlier work
# [7] = Study to assess the bioequivalence of Compound 1 and varenicline tartrate (oral plasma concentrations); type: in vivo, monkey (non-human primates); conditions: monkey, capsule, 0.04 mg eq/kg
# Procedure: FIG. 3 is a graph of the mean monkey plasma concentrations of varenicline following an oral dose of 0.04 mg eq/kg of prodrug (Compound 1) and varenicline tartrate.
# A prodrug of varenicline (Compound 1) prepared as described above in Example 1 was orally dosed in capsule form to non-human primates to assess bioequivalence to varenicline tartrate API (Chantix). FIG. 3 is a graph of the mean monkey plasma concentrations of varenicline following an oral dose of 0.04 mg eq/kg of prodrug (Compound 1) and 0.04 mg eq/kg of varenicline tartrate.
# [8] = Weight loss on heating (solid-state characterization); type: physicochemical; conditions: up to 150 °C; crystalline anhydrous form
# Procedure: (§1) Compound 1 is a crystalline anhydrous solid form as represented by its PXRD pattern (FIG. 1). […] Compound 1 has a melting onset of ~227 °C and is non-hygroscopic, i.e., less than 0.2% moisture uptake at 90% RH/25 °C.
# [9] = Moisture uptake / hygroscopicity (solid-state characterization); type: physicochemical; conditions: 90% RH/25 °C; crystalline anhydrous form
# Procedure: as §1
# [10] = nitrosating conditions: NaNO2 0.1 eq, AcOH 0.1 eq, THF, 10 min
# [11] = nitrosating conditions: NaNO2 0.1 eq, AcOH 0.1 eq, THF
# [12] = varenicline 1 mg BID compared to bupropion SR or placebo
smiles,measurement,setting,value
"Cl.c1cnc2cc3c(cc2n1)C1CNCC3C1 [Varenicline Free base, 5,8,14-triazatetracyclo [10.3.1.0^2,11.0^4,9]hexadeca-2(11),3,5,7,9-pentaene]",10 min. N—NO Level,[1]; [10],Not detected
same,2 h N—NO Level,[1]; [11],Not detected
same,42 h N—NO Level,[1]; [11],Not detected
"Cl.c1cnc2cc3c(cc2n1)C1CNCC3C1 [varenicline, 5,8,14-triazatetracyclo[10.3.1.0^2,11.0^4,9]hexadeca-2(11),3,5,7,9-pentaene]","rate of co-confirmed abstinence during weeks 9 through 12, comparison in words",[2]; [12],superior
same,continuously abstinent from one week after TQD through the end of treatment,"[2]; varenicline 1 mg BID, placebo 11%",29%
same,co-confirmed abstinence during weeks 9 through 12,"[2]; varenicline 1 mg BID, placebo 18%",44%
same,co-confirmed continuous abstinence during weeks 9 through 12,[3]; 1 mg per day (0.5 mg BID),Forty five
same,continuously abstinent from one week after TQD through the end of treatment,[3]; 1 mg per day,31%
same,co-confirmed continuous abstinence during weeks 9 through 12,[3]; 2 mg per day (1 mg BID),51%
same,continuously abstinent from one week after TQD through the end of treatment,[3]; 2 mg per day,31%
same,"rate of co-confirmed abstinence during weeks 9 through 12, comparison in words",[4]; [12],superior
same,continuously abstinent from one week after TQD through the end of treatment,"[4]; varenicline 1 mg BID, placebo 12%",29%
same,co-confirmed abstinence during weeks 9 through 12,"[4]; varenicline 1 mg BID, placebo 17%",44%
same,effectiveness as an aid to smoking cessation (in words),[5],effective as an aid to smoking cessation
same,continuously abstinent from one week after TQD through the end of treatment,[6]; placebo 9%,29%
same,co-confirmed continuous abstinence during weeks 9 through 12,[6]; placebo 12%,40%
"Cc1ncc2c(c1O)[C@H](N1C[C@H]3C[C@@H](C1)c1cc4nccnc4cc13)OC2 [Compound 1, (R)-6-methyl-1-((6R,10S)-6,7,9,10-tetrahydro-8H-6,10-methanoazepino[4,5-g]quinoxalin-8-yl)-1,3-dihydrofuro[3,4-c]pyridin-7-ol]",nitrosamine formation under nitrosating conditions (in words),[1]; as compared to varenicline tartrate,does not form nitrosamines
same,10 min. N—NO Level,[1]; [10],Not detected
same,2 h N—NO Level,[1]; [11],Not detected.
same,42 h N—NO Level,[1]; [11],Not detected
same,prodrug remaining in the systemic circulation,[7]; analyte prodrug,no prodrug remaining in the systemic circulation
same,bioequivalence (plasma concentration over time) of the varenicline released from the prodrug,"[7]; analyte varenicline, vs varenicline tartrate 0.04 mg eq/kg",comparable to varenicline tartrate
same,weight loss,[8],less than 0.1%
same,hygroscopicity (in words),[9],non-hygroscopic
same,moisture uptake,[9],less than 0.2%
O=C(O)C(O)C(O)C(=O)O.c1cnc2cc3c(cc2n1)[C@@H]1CNC[C@H]3C1 [Varenicline tartrate],10 min. N—NO Level (by MS),"[1]; nitrosating conditions: NaNO2 0.1 eq, AcOH 0.1 eq, THF, 10 min, MS detection",Detectable by MS
same,10 min. N—NO Level,[1]; [10],Not detected by UV
same,2 h N—NO Level,[1]; [11],0.83 A %
same,42 h N—NO Level,[1]; [11],5.15 A %

# — patent US20260356854A1, “Prodrugs of Varenicline and Compounds Containing Vulnerable Amines” (Pfizer Inc., priority 2022, published 2026)
